Data: patent publication US9101785B2, “Use of 2,3-dihydroxypropyl dodecanoate for treating seborrhoea” (PIERRE FABRE DERMO-COSMETIQUE, priority 2009, dated 2015)

Tested on: 5-α reductase enzyme
Assay: Inhibition of 5-α reductase activity: conversion of [4-14C]testosterone to DHT by normal human dermal fibroblasts (NHDF)
Type: cell-based

| Compound | 5-α reductase enzyme activity (reduced to) (75 μM test compound, 24 h pre-incubation then 24 h with radiolabelled testosterone, DHT quantified by TLC/phosphorImager) | inhibition of 5-α reductase activity (in words) (dose-effect observed, FIG. 1) | testosterone metabolisation to DHT / 5-α reductase activity (in words) (positive control tested at 10 μM) |
| --- | --- | --- | --- |
| CCCCCCCCCCCC(=O)OCC(O)CO (stereo not drawn) [2,3-dihydroxypropyl dodecanoate] | 66% | inhibition of 5-α reductase activity is also observed | – |
| CC(C)(C)NC(=O)[C@H]1CC[C@H]2[C@@H]3CC[C@H]4NC(=O)C=C[C@]4(C)[C@H]3CC[C@]12C [finasteride, reference compound] | – | – | lowers testosterone metabolisation to DHT significantly |
